Reference: ChEMBL document CHEMBL1159292, “New antifungal bithienylacetylenes from Blumea obliqua” (1995)
≈ marks a conversion by molar mass, not a printed value. Calls of active or inactive are those of the source. The calls are words filed in the database; no cut-off is given here.

What was measured:
Epidermophyton floccosum = experiment: Antifungal activity against Epidermophyton floccosum after 7 days by tube dilution method; type: functional; conditions: 168 h
Pleurotus ostreatus = experiment: Antifungal activity against Pleurotus ostreatus after 7 days by tube dilution method; type: functional; conditions: 168 h
Shigella boydii = experiment: Antibacterial activity against Shigella boydii by agar well diffusion method; type: functional, organism-based
[1] = test system: Corynebacterium diphtheriae; experiment: Antibacterial activity against Corynebacterium diphtheriae by agar well diffusion method; type: functional, organism-based
Staphylococcus aureus = experiment: Antibacterial activity against Staphylococcus aureus by agar well diffusion method; type: functional, organism-based
Escherichia coli = experiment: Antibacterial activity against Escherichia coli by agar well diffusion method; type: functional, organism-based
Enterococcus faecalis = experiment: Antibacterial activity against Streptococcus faecalis by agar well diffusion method; type: functional, organism-based
[2] = test system: Salmonella enterica subsp. enterica serovar Typhi str. CT18; experiment: Antibacterial activity against Salmonella typhi by agar well diffusion method; type: functional, organism-based

| Structure (SMILES) | MIC (Epidermophyton floccosum) | MIC (Pleurotus ostreatus) | Activity (Shigella boydii) | Activity [1] | Activity (Staphylococcus aureus) | Activity (Escherichia coli) | Activity (Enterococcus faecalis) | Activity [2] |
| --- | --- | --- | --- | --- | --- | --- | --- | --- |
| Cc1ccc(-c2ccc(C#CCCOC(=O)CC(C)C)s2)s1 | 200 µg/mL (≈ 602 µM) | 200 µg/mL (≈ 602 µM) | Active | Active | Active | Active | Active | Active |
| COC1=CC(=O)C[C@@H](C)[C@]12Oc1c(Cl)c(OC)cc(OC)c1C2=O [GRISEOFULVIN] | 250 µg/mL (≈ 709 µM) | 250 µg/mL (≈ 709 µM) |  |  |  |  |  |  |
| C=CC#Cc1ccc(-c2ccc(COC(=O)CC(C)C)s2)s1 | 200 µg/mL (≈ 605 µM) | 200 µg/mL (≈ 605 µM) |  |  |  |  |  |  |
